Results from patent publication US12077503B2, “Substituted cyclic amides and their use as herbicides” (FMC CORPORATION, priority 2015, dated 2024).

Experiments:
Assay type in all cases: in vivo
rice (Oryra sativa) = assay: Test B flooded paddy test; settings: Flood, 500 g ai/ha; 0 to 100 scale where 0 is no effect and 100 is complete control; 13 to 15 d
Procedure: (§1) Plant species in the flooded paddy test selected from rice (Oryra sativa), sedge, umbrella (small-flower umbrella sedge, Cyperus difformis), ducksalad (Heteranthera limosa), and barnyardgrass (Echinochloa crus-galli) were grown to the 2-leaf stage for testing. At time of treatment, test pots were flooded to 3 cm above the soil surface, treated by application of test compounds directly to the paddy water, and then maintained at that water depth for the duration of the test. Treated plants and controls were maintained in a greenhouse for 13 to 15 d, after which time all species were compared to controls and visually evaluated. Plant response ratings, summarized in Table B, are based on a scale of 0 to 100 where 0 is no effect and 100 is complete control. A dash (-) response means no test result.

[1] = system: sedge, umbrella (small-flower umbrella sedge, Cyperus difformis); assay: Test B flooded paddy test; settings: Flood, 500 g ai/ha; 0 to 100 scale where 0 is no effect and 100 is complete control; 13 to 15 d
Procedure: as §1

[2] = system: barnyardgrass (Echinochloa crus-galli); assay: Test B flooded paddy test; settings: Flood, 500 g ai/ha; 0 to 100 scale where 0 is no effect and 100 is complete control; 13 to 15 d
Procedure: as §1

[3] = system: ducksalad (Heteranthera limosa); assay: Test B flooded paddy test; settings: Flood, 500 g ai/ha; 0 to 100 scale where 0 is no effect and 100 is complete control; 13 to 15 d
Procedure: as §1

[4] = system: pigweed (Amaranthus retroflexus); assay: Test A preemergence; settings: Preemergence
Text: (§2) Seeds of plant species selected from barnyardgrass (Echinochloa crus-galli), Kochia (Kochia scoparia), ragweed (common ragweed, Ambrosia elatior), ryegrass, Italian (Italian ryegrass, Lolium multiflorum), crabgrass, large (Digitaria sanguinalis), giant foxtail (Setaria faberii), green foxtail (Setaria viridis), morningglory (Ipomoea spp.), pigweed (Amaranthus retroflexus), velvetleaf (Abutilon theophrasti), wheat (Triticum aestivum), and corn (Zea mays) were planted into a blend of loam soil and sand and treated preemergence with a directed soil spray using test chemicals formulated in anon-phytotoxic solvent mixture which included a surfactant.
(§3) At the same time, plants selected from these crop and weed species and also blackgrass (Alopecurus myosuroides), and Galium (catchweed bedstraw, Galium aparine) were planted in pots containing the same blend of loam soil and sand and treated with postemergence applications of test chemicals formulated in the same manner. Plants ranged in height from 2 to 10 cm and were in the one- to two-leaf stage for the postemergence treatment. Treated plants and untreated controls were maintained in a greenhouse for approximately 10 d, after which time all treated plants were compared to untreated controls and visually evaluated for injury. Plant response ratings, summarized in Table A, are based on a 0 to 100 scale where 0 is no effect and 100 is complete control. A dash (-) response means no test result.

Kochia (Kochia scoparia) [5] = assay: Test A preemergence; settings: Preemergence
Text: as §2, §3

[6] = system: barnyardgrass (Echinochloa crus-galli); assay: Test A preemergence; settings: Preemergence
Text: as §2, §3

[7] = system: giant foxtail (Setaria faberii); assay: Test A preemergence; settings: Preemergence
Text: as §2, §3

[8] = system: ragweed (common ragweed, Ambrosia elatior); assay: Test A preemergence; settings: Preemergence
Text: as §2, §3

[9] = system: ryegrass, Italian (Italian ryegrass, Lolium multiflorum); assay: Test A preemergence; settings: Preemergence
Text: as §2, §3

[10] = system: Galium (catchweed bedstraw, Galium aparine); assay: Test A postemergence
Text: as §2, §3

[11] = system: pigweed (Amaranthus retroflexus); assay: Test A postemergence
Text: as §2, §3

corn (Zea mays) = assay: Test A postemergence
Text: as §2, §3

Kochia (Kochia scoparia) [12] = assay: Test A postemergence
Text: as §2, §3

[13] = system: barnyardgrass (Echinochloa crus-galli); assay: Test A postemergence
Text: as §2, §3

[14] = system: giant foxtail (Setaria faberii); assay: Test A postemergence
Text: as §2, §3

[15] = system: ragweed (common ragweed, Ambrosia elatior); assay: Test A postemergence
Text: as §2, §3

[16] = system: blackgrass (Alopecurus myosuroides); assay: Test A postemergence
Text: as §2, §3

[17] = system: wheat (Triticum aestivum); assay: Test A postemergence
Text: as §2, §3

[18] = system: ryegrass, Italian (Italian ryegrass, Lolium multiflorum); assay: Test A postemergence
Text: as §2, §3

[19] = 125 g ai/ha, visual injury after approximately 10 d, 0 to 100 scale where 0 is no effect and 100 is complete control
[20] = 500 g ai/ha, visual injury approx. 10 d
[21] = 125 g ai/ha, postemergence, visual rating after approx. 10 d, 0 to 100 scale (0 no effect, 100 complete control)
[22] = Postemergence, 500 g ai/ha, 0 to 100 scale where 0 is no effect and 100 is complete control
[23] = 125 g ai/ha, postemergence, visual injury rating on 0 to 100 scale (0 no effect, 100 complete control), approx. 10 d

## O=C1NCC(c2ccc(Oc3ccccc3)cc2)C1C(=O)Nc1ccc(F)cc1F (racemic) [Compound 535]
Rice (Oryra sativa)
  Plant response rating, Rice: 0
[1]
  Plant response rating, Sedge, Umbrella: 50
[2]
  Plant response rating, Barnyardgrass: 0
[3]
  Plant response rating, Ducksalad: 20
[4]; [19]
  Plant response rating, Pigweed: 0
[4]; [20]
  Pigweed plant response rating (0 to 100 scale, 0 is no effect, 100 is complete control): 0
Kochia (Kochia scoparia) [5]; [19]
  Plant response rating, Kochia: 0
Kochia (Kochia scoparia) [5]; [20]
  Kochia plant response rating (0 to 100 scale, 0 is no effect, 100 is complete control): 0
[6]; [19]
  Plant response rating, Barnyardgrass: 0
[6]; [20]
  Barnyardgrass plant response rating (0 to 100 scale, 0 is no effect, 100 is complete control): 0
[7]; [19]
  Plant response rating, Foxtail, Giant: 0
[7]; [20]
  Foxtail, Giant plant response rating (0 to 100 scale, 0 is no effect, 100 is complete control): 0
[8]; [19]
  Plant response rating, Ragweed: 0
[8]; [20]
  Ragweed plant response rating (0 to 100 scale, 0 is no effect, 100 is complete control): 0
[9]; [19]
  Plant response rating, Ryegrass, Italian: 0
[9]; [20]
  Ryegrass, Italian plant response rating (0 to 100 scale, 0 is no effect, 100 is complete control): 0
[10]; [21]
  Plant response rating, Galium: 0
[10]; [22]
  Plant response rating, Galium: 0
[11]; [21]
  Plant response rating, Pigweed: 0
[11]; [22]
  Plant response rating, Pigweed: 0
Corn (Zea mays); [21]
  Plant response rating, Corn: 0
Corn (Zea mays); [22]
  Plant response rating, Corn: 0
Kochia (Kochia scoparia) [12]; [21]
  Plant response rating, Kochia: 0
Kochia (Kochia scoparia) [12]; [22]
  Plant response rating, Kochia: 0
[13]; [23]
  Barnyardgrass plant response rating: 0
[13]; [22]
  Plant response rating, Barnyardgrass: 0
[14]; [21]
  Plant response rating, Foxtail, Giant: 0
[14]; [22]
  Plant response rating, Foxtail, Giant: 0
[15]; [21]
  Plant response rating, Ragweed: 0
[15]; [22]
  Plant response rating, Ragweed: 0
[16]; [23]
  Blackgrass plant response rating: 0
[16]; [22]
  Plant response rating, Blackgrass: 0
[17]; [21]
  Plant response rating, Wheat: 0
[17]; [22]
  Plant response rating, Wheat: 0
[18]; [21]
  Plant response rating, Ryegrass, Italian: 0
[18]; [22]
  Plant response rating, Ryegrass, Italian: 0
